The target of one test is T1, rat NaPi-2b (Rattus norvegicus, UniProt Q9JJ09).
T1 construct: expressed in transfected cells; host or cells: Xenopus oocytes injected with cRNA
T1 sequence (Q9JJ09 1-695): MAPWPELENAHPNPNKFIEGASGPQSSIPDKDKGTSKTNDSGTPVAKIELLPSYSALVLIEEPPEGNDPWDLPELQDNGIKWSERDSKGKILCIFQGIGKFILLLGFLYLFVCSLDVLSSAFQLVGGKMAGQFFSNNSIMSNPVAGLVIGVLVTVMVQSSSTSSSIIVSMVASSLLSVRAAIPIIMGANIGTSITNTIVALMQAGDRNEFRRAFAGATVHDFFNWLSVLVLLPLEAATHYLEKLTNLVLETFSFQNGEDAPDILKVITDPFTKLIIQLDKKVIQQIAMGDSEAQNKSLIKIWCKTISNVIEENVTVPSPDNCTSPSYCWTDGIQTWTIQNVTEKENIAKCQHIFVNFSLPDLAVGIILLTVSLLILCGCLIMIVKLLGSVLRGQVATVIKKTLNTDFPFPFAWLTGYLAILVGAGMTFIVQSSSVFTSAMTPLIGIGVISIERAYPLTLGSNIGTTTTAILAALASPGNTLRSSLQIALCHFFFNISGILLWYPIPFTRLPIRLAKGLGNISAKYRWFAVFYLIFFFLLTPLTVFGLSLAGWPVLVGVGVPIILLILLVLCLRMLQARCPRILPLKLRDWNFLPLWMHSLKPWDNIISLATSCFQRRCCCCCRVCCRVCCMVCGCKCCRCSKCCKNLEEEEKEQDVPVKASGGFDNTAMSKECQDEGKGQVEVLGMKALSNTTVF
Put plainly: Sodium-dependent phosphate uptake of Xenopus oocytes which expressed NaPi-2b (32P). In kind it is cell-based. As to conditions: Xenopus oocytes expressing rat NaPi-2b, 32P radioactive phosphorus; read-out: IC50 (phosphate uptake inhibitory activity). The method in brief:
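Rat NaPi-2b cloned from small-intestine cDNA; cRNA injected into Xenopus oocytes, expression for 2 days. Phosphate uptake inhibition measured with 32P; percent inhibition at 300 μM and 100 μM read from the same inhibition curve.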

For a further test, the target named is T2, human NaPi-2a (Homo sapiens, UniProt Q06495).
T2 construct: expressed in transfected cells
T2 sequence (Q06495 1-639): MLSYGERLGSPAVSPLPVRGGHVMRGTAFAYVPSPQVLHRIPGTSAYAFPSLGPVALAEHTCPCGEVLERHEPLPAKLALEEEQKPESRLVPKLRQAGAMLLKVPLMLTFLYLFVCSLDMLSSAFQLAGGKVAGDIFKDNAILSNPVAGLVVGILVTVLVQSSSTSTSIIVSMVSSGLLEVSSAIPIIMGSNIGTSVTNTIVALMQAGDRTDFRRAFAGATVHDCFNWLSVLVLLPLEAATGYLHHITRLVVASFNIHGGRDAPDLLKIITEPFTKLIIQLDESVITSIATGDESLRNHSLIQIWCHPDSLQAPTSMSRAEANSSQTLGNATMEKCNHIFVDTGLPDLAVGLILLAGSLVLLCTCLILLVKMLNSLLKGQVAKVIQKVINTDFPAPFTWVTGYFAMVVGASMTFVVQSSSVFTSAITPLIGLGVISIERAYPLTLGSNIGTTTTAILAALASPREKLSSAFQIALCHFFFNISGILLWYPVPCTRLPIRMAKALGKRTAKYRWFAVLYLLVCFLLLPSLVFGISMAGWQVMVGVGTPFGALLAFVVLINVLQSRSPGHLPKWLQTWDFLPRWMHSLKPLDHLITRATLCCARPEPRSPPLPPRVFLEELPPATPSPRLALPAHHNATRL
Briefly: Sodium-dependent phosphate uptake of Xenopus oocytes which expressed NaPi-2a (32P). The class given is cell-based. As to conditions: phosphate uptake, Xenopus oocytes expressing human NaPi-2a; five concentration levels. The text has this: Experiment of Sodium-Dependent Phosphate Uptake of Xenopus oocytes which Expressed NaPi-2a
In the test, a group with the addition of choline chloride (Choline Cl) was used as a negative control for nonspecific uptake, and PFA (phosphonoformic acid) was used as a positive control for phosphate transport inhibition.

pIC50: −log10 of the molar value. Where only a bound is given, the exact number is not on record here.

For `Cc1ccc(/C=N/NC(=O)c2c(C)csc2NC(=O)c2cccc(CN3CCN(c4ncccn4)CC3)c2)cc1` [Compound 827, N-[4-Methyl-3-(4-methyl-benzylidene-hydrazinocarbonyl)-thiophen-2-yl]-3-(4-pyrimidin-2-yl-piperazin-1-ylmethyl)-benzamide], the values for the pIC50 on rat NaPi-2b and on human NaPi-2a were 5.46 and 4.61, respectively.
The like results for `O=C(Nc1sc2ccccc2c1C(=O)N/N=C/c1ccc(Cl)c(C(F)(F)F)c1)c1cccc(CN2CCC(CO)CC2)c1` [Compound 802, N-[3-(4-Chloro-3-trifluoromethyl-benzylidene-hydrazinocarbonyl)-benzo[b]thiophen-2-yl]-3-(4-hydroxymethyl-piperidin-1-ylmethyl)-benzamide] were, in that order, 5.92 and 5.22.
The like results for `O=C(Nc1ccc(N2CCCCC2)cc1C(=O)N/N=C/c1ccc(F)cc1)c1cccc(CSCC(O)CO)c1` (centres unmarked) [Compound 901, 3-(2,3-Dihydroxy-propylsulfanylmethyl)-N-[2-(4-fluoro-benzylidene-hydrazinocarbonyl)-4-piperidin-1-yl-phenyl]-benzamide] were, in that order, greater than 6.00 and greater than 6.00.
Consider `Cc1csc(NC(=O)c2cccc(CN(C)C)c2)c1C(=O)N/N=C/c1ccc(Cl)c(C(F)(F)F)c1` [Compound 824, N-[3-(4-Chloro-3-trifluoromethyl-benzylidene-hydrazinocarbonyl)-4-methyl-thiophen-2-yl]-3-dimethylaminomethyl-benzamide], for which the pIC50 at rat NaPi-2b is 5.49; against human NaPi-2a, 5.09.
For `CCN(CC)CCNCc1cccc(C(=O)Nc2sc3c(c2C(=O)N/N=C/c2ccc(F)cc2)CCC3)c1` [Compound 813, 3-[(2-Diethylamino-ethylamino)-methyl]-N-[3-(4-fluoro-benzylidene-hydrazinocarbonyl)-5,6-dihydro-4H-cyclopenta[b]thiophen-2-yl]-benzamide], the pIC50 at rat NaPi-2b is 5.20; against human NaPi-2a, 4.45.
The like results for `Cc1ccc(/C=N/NC(=O)c2cc(Br)ccc2NC(=O)c2ccc(CSCCO)cc2)cc1` [Compound 264, N-[4-Bromo-2-(4-methyl-benzylidene-hydrazinocarbonyl)-phenyl]-4-(2-hydroxy-ethylsulfanylmethyl)-benzamide] were, in that order, greater than 6.00 and 5.36.
The like results for `O=C(Nc1sc2c(c1C(=O)N/N=C/c1ccc(F)cc1)CCC2)c1cccc(CN2CCC(CO)CC2)c1` [Compound 818, N-[3-(4-Fluoro-benzylidene-hydrazinocarbonyl)-5,6-dihydro-4H-cyclopenta[b]thiophen-2-yl]-3-(4-hydroxymethyl-piperidin-1-ylmethyl)-benzamide] were, in that order, 5.13 and 4.50.
Consider `O=C(Nc1sc2c(c1C(=O)N/N=C/c1cccc(F)c1)CCCC2)c1cccc(CN2CCC(O)CC2)c1` [Compound 636, N-[3-(3-Fluoro-benzylidene-hydrazinocarbonyl)-4,5,6,7-tetrahydro-benzo[b]thiophen-2-yl]-3-(4-hydroxy-piperidin-1-ylmethyl)-benzamide], for which the negative-log IC50 (pIC50) was 5.41 on rat NaPi-2b and 5.28 on human NaPi-2a.
The like results for `O=C(Nc1ccc(Br)cc1C(=O)N/N=C/c1ccc(F)cc1)c1ccc(CSCCO)cc1` [Compound 262, N-[4-Bromo-2-(4-fluoro-benzylidene-hydrazinocarbonyl)-phenyl]-4-(2-hydroxy-ethylsulfanylmethyl)-benzamide] were, in that order, 5.96 and 5.35.
The like results for `Cc1ccc(/C=N/NC(=O)c2c(C)csc2NC(=O)c2cccc(CN3CCC4(CC3)OCCO4)c2)cc1` [Compound 833, 3-(1,4-Dioxa-8-aza-spiro[4,5]dec-8-ylmethyl]-N-[4-methyl-3-(4-methyl-benzylidene-hydrazinocarbonyl)-thiophen-2-yl]-benzamide] were, in that order, 5.10 and 4.42.
Turning to `Cc1ccc(/C=N/NC(=O)c2c(NC(=O)c3cccc(CN4CCC(CO)CC4)c3)sc3c2CCCC3)cc1C` [Compound 639, N-[3-(3,4-Dimethyl-benzylidene-hydrazinocarbonyl)-4,5,6,7-tetrahydro-benzo[b]thiophen-2-yl]-3-(4-hydroxymethyl-piperidin-1-ylmethyl)-benzamide], the negative-log IC50 (pIC50) on rat NaPi-2b is 5.74; on human NaPi-2a it was 4.95.
In the case of `CCN(CC)CCN(C)Cc1cccc(C(=O)Nc2ccc(N3CCCCC3)cc2C(=O)N/N=C/c2ccc(F)cc2)c1` [Compound 860, 3-{[(2-Diethylamino-ethyl)-methyl-amino]-methyl}-N-[2-(4-fluoro-benzylidene-hydrazinocarbonyl)-4-piperidin-1-yl-phenyl]-benzamide], the values for the pIC50 on rat NaPi-2b and at human NaPi-2a were 6.19 and greater than 6.00, respectively.
For `Cc1ccc(/C=N/NC(=O)c2c(NC(=O)c3cccc(CN4CCC(CO)CC4)c3)sc3c2CCCC3)cc1` [Compound 640, 3-(4-Hydroxymethyl-piperidin-1-ylmethyl)-N-[3-(4-methyl-benzylidene-hydrazinocarbonyl)-4,5,6,7-tetrahydro-benzo[b]thiophen-2-yl]-benzamide], the pIC50 at rat NaPi-2b was 5.79; against human NaPi-2a it was 4.81.
The like results for `O=C(Nc1sc2c(c1C(=O)N/N=C/c1ccc(F)cc1)CCCC2)c1cccc(CN2CCC(CO)CC2)c1` [Compound 641, N-[3-(4-Fluoro-benzylidene-hydrazinocarbonyl)-4,5,6,7-tetrahydro-benzo[b]thiophen-2-yl]-3-(4-hydroxymethyl-piperidin-1-ylmethyl)-benzamide] were, in that order, 5.53 and 5.12.
The like results for `CC(O)CN(Cc1cccc(C(=O)Nc2sc3ccccc3c2C(=O)N/N=C/c2ccc(F)cc2)c1)CC(C)O` (centres unmarked) [Compound 794, 3-{[Bis-(2-hydroxy-propyl)-amino]-methyl}-N-[3-(4-fluoro-benzylidene-hydrazinocarbonyl)-benzo[b]thiophen-2-yl]-benzamide] were, in that order, 6.01 and 5.02.
The like results for `COc1ccc(/C=N/NC(=O)c2c(C)csc2NC(=O)c2cccc(CN3CCN(c4ncccn4)CC3)c2)cc1` [Compound 831, N-[3-(4-Methoxy-benzylidene-hydrazinocarbonyl)-4-methyl-thiophen-2-yl]-3-(4-pyrimidin-2-yl-piperazin-1-ylmethyl)-benzamide] were, in that order, 5.41 and 4.54.
As to `O=C(Nc1ccc(N2CCCCC2)cc1C(=O)N/N=C/c1cccc(F)c1)c1cccc(CSCC(O)CO)c1` (centres unmarked) [Compound 902, 3-(2,3-Dihydroxy-propylsulfanylmethyl)-N-[2-(3-fluoro-benzylidene-hydrazinocarbonyl)-4-piperidin-1-yl-phenyl]-benzamide], the pIC50 on rat NaPi-2b and on human NaPi-2a was greater than 6.00 each time.
Take `Cc1csc(NC(=O)c2cccc(CN3CCN(c4ncccn4)CC3)c2)c1C(=O)N/N=C/c1cccc(F)c1` [Compound 829, N-[3-(3-Fluoro-benzylidene-hydrazinocarbonyl)-4-methyl-thiophen-2-yl]-3-(4-pyrimidin-2-yl-piperazin-1-ylmethyl)-benzamide]: the pIC50 at rat NaPi-2b is 5.41; against human NaPi-2a it was greater than 5.52.
With `O=C(Nc1sc2ccccc2c1C(=O)N/N=C/c1ccc(F)cc1)c1cccc(CN2CCC(CO)CC2)c1` [Compound 800, N-[3-(4-Fluoro-benzylidene-hydrazinocarbonyl)-benzo[b]thiophen-2-yl]-3-(4-hydroxymethyl-piperidin-1-ylmethyl)-benzamide], the pIC50 at rat NaPi-2b was 5.03; against human NaPi-2a, 5.00.

What is called pIC50 is the negative decadic logarithm of the IC50, by convention in mol/L.

Source of the values: patent publication US8134015B2, “Compound inhibiting in vivo phosphorous transport and medicine containing the same” (Kyowa Hakko Kirin Co., Ltd., priority 2003, dated 2012).
